Read-outs that look alike come from different tables or passages of the source.

For assay [1], the target named is MEK1 activated ERK1 (Homo sapiens (Human), UniProt P27361). Put plainly: Omnia continuous-read kinase assay for potency against MEK1 activated ERK1. Type of assay: biochemical. Put shortly: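 Apparent IC50 came from initial reaction slopes (RFU vs time) plotted against log inhibitor with a variable-slope fit. Reactions were started with ERK1 (4 nM final) added to 50 μM ATP, roughly at its appKM, and 10 μM Sox-conjugated ST17 peptide in 20 mM Tris pH 7.5, 5 mM MgCl2. Fluorescence was monitored every 71 seconds.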

For assay [2], the target named is T1, Erk1 (Homo sapiens (Human), UniProt P27361). Put plainly: Protein Mass Modification Assay (intact protein MALDI). Type of assay: binding. Put shortly: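 Percent covalent modification comes from the intact-protein MALDI centroid mass shift, treated versus control, divided by compound MW. Before analysis, human Erk1 was exposed to compound at 10-fold excess over protein for 60 min at room temperature.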
Target sequence in this assay (P27361 whole entry, looked up): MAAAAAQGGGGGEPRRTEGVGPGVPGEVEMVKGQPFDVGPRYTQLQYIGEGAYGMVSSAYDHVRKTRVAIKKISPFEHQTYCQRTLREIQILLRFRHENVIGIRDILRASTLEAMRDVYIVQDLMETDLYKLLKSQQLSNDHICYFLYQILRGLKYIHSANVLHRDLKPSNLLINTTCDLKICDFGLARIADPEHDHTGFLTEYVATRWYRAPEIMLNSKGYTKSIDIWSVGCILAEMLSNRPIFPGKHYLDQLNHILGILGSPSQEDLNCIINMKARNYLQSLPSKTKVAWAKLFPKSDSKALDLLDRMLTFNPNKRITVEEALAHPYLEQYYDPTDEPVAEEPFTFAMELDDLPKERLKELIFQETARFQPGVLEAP

For assay [3], the target named is T1, Erk1. Put plainly: Measurement of Erk occupancy with biotinylated covalent probe I-299. Format: cell-based. Conditions: HT-29 cells. The protocol: Measurement of Erk Occupancy with Biotinylated Covalent Probe
This experiment measured occupancy of the ERK1 target by compounds according to the invention. This experiment was conducted using the Mesoscale Discovery test kit (Cat. #N45107B). One day before the assay, cells were split and added at 50,000 cells per well to a flat-bottom 96 well plate in 200 μl of growth medium. The next day, the medium was discarded, 100 μl medium containing test compound was added, and the plate was incubated at 37° C. for 120 minutes. The plate was rinsed once with PBS, and 50 μl lysis buffer with test compound was added. The plate was incubated at 4° C. for 30 min, and 30 μl of lysate was transferred to a plate to capture total and phosphor-Erk. Biotinylated probe I-299 was diluted in lysis buffer and added to each well to a final concentration of 0.2 μM. The plate was incubated for 2 hr under constant shaking at room temperature. The plate was washed 3 times with MSD wash buffer. To detect the biotinylated probe bonding, tagged streptavidin was added (MSD, Cat#R32AD-1) at 1 μg/ml, 25 μl/well, followed by a 60 min incubation under shaking. The plate was washed 3 times, 150 μl MSD Read Buffer (Cat#R61TX) was added and the plate was read in a plate reader manufactured by MSD. Percent occupancy by test compound at Erk was calculated by comparing the chemiluminescence readings from treated cells as compared to the chemiluminescence readings in untreated controls (which are defined as 100% probe bonding or 0% occupancy). The amount of covalent probe signal divided by the amount of ERK signal for samples with no test compound treatment represents the maximum probe signal (MPS). In samples treated with test compound prior to covalent probe, the ratio of probe signal to ERK signal (the test probe signal, TPS) was reduced by the degree of target occupancy by the test compound which blocks covalent probe binding. The difference between the MPS and the TPS, divided by the MPS gave the target occupancy by the test compound. This ratio was then expressed as a percent occupancy. Results from this assay are provided in Table A below under the column “Occupancy EC50 (nM) HT-29.”
Target sequence in this assay (P27361 2-379 limits assumed): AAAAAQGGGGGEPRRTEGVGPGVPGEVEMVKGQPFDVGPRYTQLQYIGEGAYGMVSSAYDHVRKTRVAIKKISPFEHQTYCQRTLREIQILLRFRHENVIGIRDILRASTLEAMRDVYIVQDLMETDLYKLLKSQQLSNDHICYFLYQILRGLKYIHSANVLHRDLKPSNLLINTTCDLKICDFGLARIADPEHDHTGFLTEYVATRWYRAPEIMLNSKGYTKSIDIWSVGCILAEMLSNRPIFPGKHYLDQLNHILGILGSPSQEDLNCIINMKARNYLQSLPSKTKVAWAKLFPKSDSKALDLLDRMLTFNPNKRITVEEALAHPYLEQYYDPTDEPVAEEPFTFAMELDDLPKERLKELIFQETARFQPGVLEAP

The test system of assay [4] is p-RSK (ERK activity) in cells after compound washout. Put plainly: Measurement of duration of action of test compounds (pRSK after washout). Type of assay: cell-based. Conditions: 6 hr after compound washout. The method, then:
The protocol below describes an assay to measure the kinase activity of ERK1 to phosphorylate its substrate, RSK, in the presence of a test compound. This experiment was conducted using a Mesoscale Discovery plate. The day before the assay, HT29 cells were split and plated at 50,000 cells/well in complete growth media. After allowing cells to adhere, the media was removed and replaced with media containing 0.1% FBS and incubated overnight. Blank MDS plates were coated with 25 μl/well RSK capture antibody and incubated at 4° C. overnight. The next day, the media was removed and replaced with 100 μl of media containing a test compound and incubated for 120 minutes at 37° C. The media was removed and replaced with 55 μl of well lysis buffer with protease and phosphatase inhibitors provided in the kit, followed by incubation at 4° C. for 30 minutes. 50 μl of lysate was transferred to a blocked MSD plate, followed by incubation at room temperature for 2 hours under constant shaking. The plate was washed 3 times with MSD wash buffer (cat#R617TX), and 25 μl/well phospho-RSK (pRSK) detection antibody was added with an appropriate Sulfo-tagged anti-species detection antibody diluted in 1% BSA in MSD wash buffer. This mixture was incubated for 1 hour at room temperature under constant shaking. The plate was washed 3 times, and 150 μl 1×MSD read buffer was added, followed by signal detection in an MSD plate reader.
Measurement of Duration of Action of Test Compounds
One day before the assay, the cells were split and added at 50,000 cells per well in flat-bottom 96 well plate in 200 μl of growth media. The next day, the medium was discarded, 100 μl medium containing test compounds was added, and the plate was incubated at 37° C. for 120 minutes. The medium was discarded, and the cells were rinsed 3 times with PBS followed by addition of 200 μl of fresh grow medium. The plate was returned to a 37° C. incubator, and separate cell lysates were made using MSD lysis buffer after 0.25, 0.5, 1, 2, 4, 6, 8 and 18 or 24 hours. Thereafter, pRSK was measured as described above in the section entitled pRSK MSD Assay. The data is presented in Table A under the column titled “p-RSK inhibition at 6 hr (%).”

[5] abbreviates: MEK1 activated ERK1, WT, ATP at KM.

MEK1 activated ERK1, sequence (P27361 whole entry): as the sequence (P27361 whole entry, looked up) above

As to `C=CC(=O)Nc1ccccc1Nc1nc(Nc2cc(CO)c(F)cc2C)ncc1C(F)(F)F` [Compound I-77, N-(2-((2-((4-Fluoro-5-(hydroxymethyl)-2-methylphenyl)amino)-5-(trifluoromethyl)pyrimidin-4-yl)amino)phenyl)acrylamide], the IC50 in assay [1] (setting [5]) was less than 100 nM. The “ERK1 Mass Mod (%)” value in assay [2] is recorded as “E (provided a mass modification of ≧70%)”. Further, the EC50 in assay [3] was less than 100 nM.
Regarding `C=CC(=O)Nc1cc(C)ccc1Nc1nc(Nc2cc(C(N)=O)ccc2C)ncc1C(F)(F)F` [Compound I-79, 3-((4-((2-Acrylamido-4-methylphenyl)amino)-5-(trifluoromethyl)pyrimidin-2-yl)amino)-4-methylbenzamide], the “ERK1 Mass Mod (%)” value in assay [2] is on record as “E (provided a mass modification of ≧70%)”. The “p-RSK inhibition at 6 hr (%)” value in assay [4] is listed as “E (provided a p-RSK inhibition percent of ≧70%)”.
Turning to `C=CC(=O)Nc1ccccc1Nc1nc(Nc2cc(OC)ncc2C)ncc1C(F)(F)F` [Compound I-85, N-(2-((2-((2-Methoxy-5-methylpyridin-4-yl)amino)-5-(trifluoromethyl)pyrimidin-4-yl)amino)phenyl)acrylamide], in assay [1] (setting [5]), the IC50 lay within 101 to 500 nM. In addition, the “ERK1 Mass Mod (%)” value in assay [2] was “G (proived a mass modification ≦30%)”. The “p-RSK inhibition at 6 hr (%)” value in assay [4] is recorded as “E (provided a p-RSK inhibition percent of ≧70%)”.
Regarding `C=CC(=O)Nc1cc(F)ccc1Nc1nc(Nc2ccc(F)cc2C)ncc1Cl` [Compound I-212, N-(2-((5-chloro-2-((4-fluoro-2-methylphenyl)amino)pyrimidin-4-yl)amino)-5-fluorophenyl)acrylamide], the IC50 in assay [1] (read-out: ERK1 Omnia WT ATP KM IC50) is less than 100 nM. For the same compound, the “ERK1 Mass Mod (%)” value in assay [2] is reported as “F (key: E: provided a mass modification of ≧70%; F: provided a mass modification of 31-69%; G: proived a mass modification ≦30%)”. In addition, the EC50 in assay [3] is less than 100 nM.
Take `C=CC(=O)Nc1ccccc1Nc1nc(Nc2cc(C(N)=O)c(F)cc2C)ncc1C(F)(F)F` [Compound I-76, 5-((4-((2-Acrylamidophenyl)amino)-5-(trifluoromethyl)pyrimidin-2-yl)amino)-2-fluoro-4-methylbenzamide]: the IC50 in assay [1] (setting [5]) was less than 100 nM. In addition, in assay [2], the “ERK1 Mass Mod (%)” value is “E (provided a mass modification of ≧70%)”. In assay [3], this compound came in with an EC50 of less than 100 nM.
As for `C=CC(=O)Nc1ccccc1Nc1nc(Nc2cc(C(N)=O)c(F)cc2C)ncc1Cl` [Compound I-214, 5-((4-((2-acrylamidophenyl)amino)-5-chloropyrimidin-2-yl)amino)-2-fluoro-4-methylbenzamide], the concentration for half-maximal inhibition (IC50) in assay [1] (setting [5]) was less than 100 nM. The “ERK1 Mass Mod (%)” value in assay [2] was “F (provided a mass modification of 31-69%)”. The same compound displayed an EC50 in assay [3] of less than 100 nM.
Turning to `C=CC(=O)Nc1cc(C)ccc1Nc1nc(Nc2cc(OC)ncc2C)ncc1Cl` [Compound I-241, N-(2-((5-chloro-2-((2-methoxy-5-methylpyridin-4-yl)amino)pyrimidin-4-yl)amino)-5-methylphenyl)acrylamide], the half-inhibitory concentration (IC50) in assay [1] (setting [5]) was less than 100 nM. Moreover, the “ERK1 Mass Mod (%)” value in assay [2] is recorded as “E (provided a mass modification of ≧70%)”. For the same compound, the “p-RSK inhibition at 6 hr (%)” value in assay [4] was “E (provided a p-RSK inhibition percent of ≧70%)”.
As for `C=CC(=O)Nc1ccccc1Nc1nc(Nc2cc(S(N)(=O)=O)ccc2C)ncc1Cl` [Compound I-205, N-(2-((5-chloro-2-((2-methyl-5-sulfamoylphenyl)amino)pyrimidin-4-yl)amino)phenyl)acrylamide], the IC50 in assay [1] (setting [5]) is less than 100 nM. Besides, the “ERK1 Mass Mod (%)” value in assay [2] is reported as “E (provided a mass modification of ≧70%)”. In addition, the EC50 in assay [3] is less than 100 nM.
For the compound `C=CC(=O)Nc1ccccc1Nc1nc(Nc2ccc(F)cc2C#N)ncc1Cl` [Compound I-211, N-(2-((5-chloro-2-((2-cyano-4-fluorophenyl)amino)pyrimidin-4-yl)amino)phenyl) acrylamide], in assay [1] (setting [5]), the concentration for half-maximal inhibition (IC50) was less than 100 nM. In addition, the “ERK1 Mass Mod (%)” value in assay [2] is recorded as “F (provided a mass modification of 31-69%)”. In assay [3], this compound displayed a 50% effective concentration (EC50) of less than 100 nM.
For `C=CC(=O)Nc1cc(C)ccc1Nc1nc(Nc2cc(C(N)=O)ccc2C)ncc1Cl` [Compound I-229, 3-((4-((2-acrylamido-4-methylphenyl)amino)-5-chloropyrimidin-2-yl)amino)-4-methylbenzamide], in assay [1] (setting [5]), the IC50 is less than 100 nM. For the same compound, the “ERK1 Mass Mod (%)” value in assay [2] is listed as “E (provided a mass modification of ≧70%)”. The “p-RSK inhibition at 6 hr (%)” value in assay [4] is given as “E (provided a p-RSK inhibition percent of ≧70%)”.
For the compound `C=CC(=O)Nc1ccccc1Nc1nc(N[C@@H]2CCC[C@H](C(N)=O)C2)ncc1Cl` (racemic) [Compound I-102, Rac-cis-3-(4-(2-acrylamidophenylamino)-5-chloropyrimidin-2-ylamino)cyclohexane carboxamide], the IC50 in assay [1] (setting [5]) is less than 100 nM. Also, the “ERK1 Mass Mod (%)” value in assay [2] is reported as “E (provided a mass modification of ≧70%)”. Besides, the concentration for a half-maximal effect (EC50) in assay [3] is less than 100 nM.
As for `C=CC(=O)Nc1ccccc1Nc1nc(Nc2cncc(OC)c2)ncc1C(F)(F)F` [Compound I-86, N-(2-((2-((5-Methoxypyridin-3-yl)amino)-5-(trifluoromethyl)pyrimidin-4-yl)amino)phenyl)acrylamide], the IC50 in assay [1] (setting [5]) is less than 100 nM. The “p-RSK inhibition at 6 hr (%)” value in assay [4] is recorded as “E (provided a p-RSK inhibition percent of ≧70%)”.
`C=CC(=O)Nc1ccccc1Nc1nc(Nc2cc(OC)ncc2C)ncc1Cl` [Compound I-240, N-(2-((5-chloro-2-((2-methoxy-5-methylpyridin-4-yl)amino)pyrimidin-4-yl)amino)phenyl)acrylamide]: the half-inhibitory concentration (IC50) in assay [1] (setting [5]) was less than 100 nM. Further, in assay [2], the “ERK1 Mass Mod (%)” value is listed as “E (provided a mass modification of ≧70%)”. In addition, the “p-RSK inhibition at 6 hr (%)” value in assay [4] was “E (provided a p-RSK inhibition percent of ≧70%)”.
Taken in the same sequence, the figures for `C=CC(=O)Nc1cc(OC)ccc1Nc1nc(Nc2cc(OC)ncc2C)ncc1Cl` [Compound I-242, N-(2-((5-chloro-2-((2-methoxy-5-methylpyridin-4-yl)amino)pyrimidin-4-yl)amino)-5-methoxyphenyl)acrylamide] were less than 100 nM, “E (provided a mass modification of ≧70%)” and “E (provided a p-RSK inhibition percent of ≧70%)”.
On to `C=CC(=O)Nc1ccccc1Nc1nc(Nc2cc(C(N)=O)ccc2C)ncc1Cl` [Compound I-319, 3-(4-(2-acrylamidophenylamino)-5-chloropyrimidin-2-ylamino)-4-methylbenzamide], for which the concentration for half-maximal inhibition (IC50) in assay [1] (setting [5]) is less than 100 nM. In assay [2], the “ERK1 Mass Mod (%)” value is on record as “E (provided a mass modification of ≧70%)”. Further, the concentration for a half-maximal effect (EC50) in assay [3] is less than 100 nM.

For the origin of these results see patent US9796700B2 (Celgene CAR LLC, priority 2013, dated 2017).
